What all share (assay type): functional, cell-based
The test system of assay [1] is MCF7. The assay is described as follows: Cytotoxicity against human MCF7 cells after 72 hrs by MTT assay. Particulars: MCF7, 72 h. Background: Tetrazolium dyes change colour on reduction, which living cells bring about.
Assay [2] deals with HEp-2. In words: Cytotoxicity against human Hep2 cells after 72 hrs by MTT assay. Particulars: HEp-2, 72 h.
Assay [3] in a line: Cytotoxicity against human MDA-MB-435S cells after 72 hrs by MTT assay.
In assay [4] the test system is SW480. In words: Cytotoxicity against human SW480 cells after 72 hrs by MTT assay. The conditions noted are these: SW480, 72 h.
The nature of assay [5]: Cytotoxicity against human LM7 cells after 72 hrs by MTT assay. The conditions noted are these: LM7, 72 h.
Assay [6] relates to HeLa. The assay is described as follows: Cytotoxicity against human HeLa cells after 72 hrs by MTT assay.

The values below come from ChEMBL document CHEMBL2417443, “Efficient synthesis and antiproliferative activity of novel thioether-substituted flavonoids” (Eur J Med Chem, 2013).

Regarding `COC(=O)Nc1ccc2c(CSc3nc(C)cc(C)n3)cc(=O)oc2c1`, the IC50 in assay [1] was determined as 9.9 µM; in assay [2], 8 µM; in assay [3] it was 19 µM; in assay [4] it was 13.2 µM; in assay [5], 8.2 µM; in assay [6], 14.3 µM.

Turning to `Cc1cc(C)nc(SCc2coc3ccccc3c2=O)n1`, the IC50 is greater than 25 µM in assay [1]; 55.1 µM in assay [2]; greater than 25 µM in assay [3]; greater than 25 µM in assay [4]; greater than 25 µM in assay [5]; greater than 25 µM in assay [6].

Regarding `O=c1cc(SCn2cnc3c(Cl)cccc3c2=O)sc2ccccc12`, the IC50 in assay [1], in assay [2], in assay [3], in assay [4], in assay [5] and in assay [6] was greater than 25 µM throughout.

`O=c1cc(CSc2nc3ccccc3o2)c2ccc(O)c(O)c2o1`: the 50% inhibitory concentration (IC50) in assay [1], in assay [2], in assay [3], in assay [4], in assay [5] and in assay [6] was greater than 25 µM each time.

As for `Cc1nnc(SCc2coc3ccc(Cl)cc3c2=O)o1`, the half-maximal inhibitory concentration (IC50) came to 5 µM in assay [1]; 6.4 µM in assay [2]; 3.3 µM in assay [3]; 3.5 µM in assay [4]; 8.7 µM in assay [5]; 3.2 µM in assay [6].

On to `Nc1nc(SCc2coc3ccccc3c2=O)n[nH]1`, for which the IC50 in assay [1] was greater than 25 µM; in assay [2], 21.3 µM; in assay [3], 8.3 µM; in assay [4], 21.4 µM; in assay [5], 16.9 µM; in assay [6], greater than 25 µM.

As to `Nc1nnc(SCc2cc(=O)c3ccccc3o2)s1`, the half-maximal inhibitory concentration (IC50) in assay [1], in assay [2], in assay [3], in assay [4], in assay [5] and in assay [6] was greater than 25 µM each time.

For `Cc1nnc(SCc2cc(=O)c3ccccc3o2)o1`, the IC50 in assay [1], in assay [2], in assay [3], in assay [4], in assay [5] and in assay [6] was greater than 25 µM throughout.

In the case of `Cc1nnc(SCc2cc(=O)c3cc(Cl)ccc3o2)o1`, the IC50 in assay [1], in assay [2], in assay [3], in assay [4], in assay [5] and in assay [6] was greater than 25 µM each time.

On to `Cc1cc(C)n2nc(SCc3nnc(SCn4cnc5c(Cl)cccc5c4=O)s3)nc2n1`, for which the IC50 in assay [1], in assay [2], in assay [3], in assay [4], in assay [5] and in assay [6] was greater than 25 µM each time.

For `Cc1cc(C)n2nc(SCc3nnc(SCc4coc5ccccc5c4=O)s3)nc2n1`, the IC50 was 9.5 µM in assay [1]; 5.3 µM in assay [2]; 1.1 µM in assay [3]; 1.5 µM in assay [4]; 2.5 µM in assay [5]; greater than 25 µM in assay [6].

As for `Cc1cc(C)n2nc(SCc3nnc(SCc4cc(=O)oc5cc(O)cc(C)c45)s3)nc2n1`, the half-maximal inhibitory concentration (IC50) in assay [1], in assay [2], in assay [3], in assay [4], in assay [5] and in assay [6] was greater than 25 µM each time.

As to `Cc1ccc2oc(CSc3nc4ccccc4s3)cc(=O)c2c1`, the IC50 in assay [1], in assay [2], in assay [3], in assay [4], in assay [5] and in assay [6] was greater than 25 µM throughout.

With `O=c1[nH]cc(F)c(=O)[nH]1` [FLUOROURACIL], the IC50 in assay [1] is 3.6 µM; in assay [5] it was 18.6 µM; in assay [6], 3.4 µM.

Usually IC50 stands for the concentration that gives 50% inhibition.
